{"source": "patent EP0354047A2", "about": "“Herbicidal method using atrazine” (MAY & BAKER LIMITED, priority 1988, dated 1990)", "assay_type_in_all_cases": "in vivo", "key": {"[1]": {"test_system": "Digitaria horizontalis (DIGHO)", "assay": "Experiment 1: field experiment, post-emergence spray, % control 29 days after application", "conditions": "Atrazine 1500g/ha", "experimental": "(§1) Duplicate 12m² plots were sprayed post-emergence with 250g or 500g/ha Compound 1 (in a composition according to Example 1 as described hereinafter) or 1500g/ha atrazine (in a commercial aqueous suspension concentrate formulation containing 500g/l w/v atrazine or a combination (as a tank mix) of the two herbicides in a volume of 300 litres/ha. The following control figures were recorded on the grass weeds Brachiaria plantaginea (BRAPL), Digitaria horizontalis (DIGHO) and Eleusine indica (ELEIN) 29 days after application."}, "[2]": {"test_system": "Brachiaria plantaginea (BRAPL)", "assay": "Experiment 1: field experiment, post-emergence spray, % control 29 days after application", "conditions": "Atrazine 1500g/ha", "experimental": "as §1"}, "[3]": {"test_system": "Eleusine indica (ELEIN)", "assay": "Experiment 1: field experiment, post-emergence spray, % control 29 days after application", "conditions": "Atrazine 1500g/ha", "experimental": "as §1"}, "[4]": {"test_system": "Brassica kaber", "assay": "Experiment 4: glasshouse, pre-emergence, fresh weight after 27 days, % inhibition of growth", "conditions": "for % inhibition of growth: Compound 99 0 g/ha", "experimental": "(§2) Glasshouse experiments showing the biological interaction between atrazine and Compound 99 on weed species when applied pre-emergence. […] After 27 days the fresh weight of vegetation in each pot was determined. […] E = […]00005:character} where E, X and Y are percentage inhibition of growth. In addition the ED90 values (the application rate giving 90% inhibition of growth) were calculated from the results for Compound 99 alone and with increasing rates of atrazine. The ED90 values were then used to plot an isobole for each species according to the method of […] op cit. The results of percentage inhibition of growth, the ED values calculated from them and the calculated expected values are given in Table 8."}, "[5]": {"test_system": "Sida spinosa", "assay": "Experiment 4: glasshouse, pre-emergence, fresh weight after 27 days, % inhibition of growth", "conditions": "for % inhibition of growth: Compound 99 0 g/ha", "experimental": "as §2"}}, "data": [{"smiles": "CCNc1nc(Cl)nc(NC(C)C)n1", "note": "[Atrazine, 2-chloro-4-ethylamino-6-isopropylamino-1,3,5-triazine]", "values": [{"measurement": "% control observed", "setting": "[1]", "value": 0, "unit": "%"}, {"measurement": "% control observed", "setting": "[2]", "value": 10, "unit": "%"}, {"measurement": "% control observed", "setting": "[3]", "value": 0, "unit": "%"}, {"measurement": "ED₉₀", "setting": "[4]; Atrazine alone", "value": "ED₉₀(g/ha) 157.7"}, {"measurement": "% inhibition of growth", "setting": "[4]; Atrazine 16 g/ha", "value": 0, "unit": "%"}, {"measurement": "% inhibition of growth", "setting": "[4]; Atrazine 31 g/ha", "value": 0, "unit": "%"}, {"measurement": "% inhibition of growth", "setting": "[4]; Atrazine 63 g/ha", "value": 34, "unit": "%"}, {"measurement": "% inhibition of growth", "setting": "[4]; Atrazine 125 g/ha", "value": 70, "unit": "%"}, {"measurement": "% inhibition of growth", "setting": "[4]; Atrazine 250 g/ha", "value": 100, "unit": "%"}, {"measurement": "% inhibition of growth", "setting": "[4]; Atrazine 500 g/ha", "value": 100, "unit": "%"}, {"measurement": "ED₉₀", "setting": "[5]; Atrazine alone", "value": "ED₉₀(g/ha) 478.75"}, {"measurement": "% inhibition of growth", "setting": "[5]; Atrazine 16 g/ha", "value": 10, "unit": "%"}, {"measurement": "% inhibition of growth", "setting": "[5]; Atrazine 31 g/ha", "value": 2, "unit": "%"}, {"measurement": "% inhibition of growth", "setting": "[5]; Atrazine 63 g/ha", "value": 15, "unit": "%"}, {"measurement": "% inhibition of growth", "setting": "[5]; Atrazine 125 g/ha", "value": 23, "unit": "%"}, {"measurement": "% inhibition of growth", "setting": "[5]; Atrazine 250 g/ha", "value": 37, "unit": "%"}, {"measurement": "% inhibition of growth", "setting": "[5]; Atrazine 500 g/ha", "value": 95, "unit": "%"}]}]}
